From PubChem BioAssay (NCI) come the findings set out here.

Where “and” joins values, the source holds several entries; their conditions need not be identical. Equal entries are not always repeated.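 Compound exposure: 48 hours, 5 concentrations, 96-well plates. Here, GI50 denotes the concentration required for 50% inhibition of growth. TGI denotes the concentration required for complete inhibition of growth.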 Some results are limits rather than exact numbers.

One test deals with NCI-H23 lung. The test is described as follows: growth of human tumour cells (NCI), 48 h.
On to `CCOC(=O)C1=C(C)N(c2ccc(Cl)cc2)[C@]2(C#N)C(O)=C(Cl)C(Cl)=C(O)[C@]12C#N`, for which the GI50 is over 100 µM and the TGI was over 100 µM.

The test system of another test is 786-0 renal. The test is described as follows: growth of human tumour cells (NCI), 48 h.
As to `COc1cc(N2C(=O)[C@H](O)C2c2ccc(SC)cc2)cc(OC)c1OC` (some centres undefined), the GI50 is under 0.01 µM and the TGI stood at 55.8 µM.
For `O=C1OCC2=C1C(c1ccc(Cl)c(Cl)c1)c1cc3c(cc1N2CCO)OCCO3` (centres undefined), the GI50 was 0.277 µM and the TGI was found to be 7.62 µM.
`O=C1c2ccccc2-c2cc([N+](=O)[O-])c([N+](=O)[O-])cc21` yielded a TGI of 5.86 µM.
`O=C(/C=C/c1cc2ccccc2[nH]c1=O)/C=C/c1cc2ccccc2[nH]c1=O` returned a TGI of over 26.1 µM.
Regarding `Nc1nc(OCc2ccccc2)c2[nH]cnc2n1`, the GI50 is 40.1 µM and 27.8 µM; the TGI was 400 µM and 96.9 µM.
Turning to `CC(=O)OC12C=C(C)C(C(C)C1)C1C(=O)N(CCN3CCOCC3)C(=O)C12` (centres undefined), the GI50 is over 100 µM and the TGI is over 100 µM.
Consider `OCC12C3C4C5C3C1C5C42` (centres undefined), for which the TGI is over 100 µM.
As for `CCCCCCCCCCCCCCCCCC[n+]1ccc2c(C)c3c(c(C)c2c1)c1cc(O)ccc1n3CC`, the GI50 was 2.21 µM and the TGI came to 10.4 µM.
With `C1CCC([PH+](C2CCCCC2)C2CCCCC2[PH+](C2CCCCC2)C2CCCCC2)CC1.[Au].[CH-]1CCCCC1CC1CCCC[N-]1` (centres undefined), the GI50 is 0.518 µM and the TGI worked out at 2.02 µM.
As to `O=[N+]([O-])c1ccc(C=Cc2ccccc2)cc1.[C-]#[O+].[C-]#[O+].[C-]#[O+].[Cr]`, the GI50 is 3.41 µM and the TGI was over 100 µM.
Take `C/C(=C\c1ccc2ccccc2c1)[N+](=O)[O-]`: the GI50 was 1.99 µM and the TGI amounted to 3.83 µM.
`NC(CSC1c2ccccc2-c2ccccc21)C(=O)O` (centres undefined) registered a TGI of over 100 µM.
`CCOC(=O)C1=C(C)N(c2ccc(Cl)cc2)[C@]2(C#N)C(O)=C(Cl)C(Cl)=C(O)[C@]12C#N`: the GI50 is over 100 µM and the TGI was over 100 µM.

A further test has as its system RPMI-8226 leukemia. As to the kind of experiment: growth of human tumour cells (NCI), 48 h.
On to `COc1cc(N2C(=O)[C@H](O)C2c2ccc(SC)cc2)cc(OC)c1OC` (some centres undefined), for which the GI50 was under 0.01 µM and the TGI amounted to 14.6 µM.
For the compound `O=C1OCC2=C1C(c1ccc(Cl)c(Cl)c1)c1cc3c(cc1N2CCO)OCCO3` (centres undefined), the GI50 was 0.405 µM and the TGI was determined as 12.9 µM.
`O=C1c2ccccc2-c2cc([N+](=O)[O-])c([N+](=O)[O-])cc21`: the TGI is 6.23 µM.
For `O=C(/C=C/c1cc2ccccc2[nH]c1=O)/C=C/c1cc2ccccc2[nH]c1=O`, the GI50 was 4.02 µM and the TGI is over 40.1 µM.
Turning to `Nc1nc(OCc2ccccc2)c2[nH]cnc2n1`, the GI50 was 50 µM and 21.6 µM; the TGI came to 69 µM.
As for `CCCCCCCCCCCCCCCCCC[n+]1ccc2c(C)c3c(c(C)c2c1)c1cc(O)ccc1n3CC`, the GI50 was 1.58 µM and the TGI came to 17.5 µM.
Consider `C1CCC([PH+](C2CCCCC2)C2CCCCC2[PH+](C2CCCCC2)C2CCCCC2)CC1.[Au].[CH-]1CCCCC1CC1CCCC[N-]1` (centres undefined), for which the GI50 was 0.186 µM and the TGI came to 0.944 µM.
Taken in the same sequence, the figures for `C/C(=C\c1ccc2ccccc2c1)[N+](=O)[O-]` were 1.57 µM and 4.39 µM.
Take `NC(CSC1c2ccccc2-c2ccccc21)C(=O)O` (centres undefined): the TGI is over 100 µM.
Take `CCOC(=O)C1=C(C)N(c2ccc(Cl)cc2)[C@]2(C#N)C(O)=C(Cl)C(Cl)=C(O)[C@]12C#N`: the GI50 is 48.6 µM and the TGI is over 100 µM.

A further test concerns HCT-15 colon. The test is described as follows: growth of human tumour cells (NCI), 48 h.
Take `COc1cc(N2C(=O)[C@H](O)C2c2ccc(SC)cc2)cc(OC)c1OC` (some centres undefined): the GI50 is 0.0115 µM and the TGI was over 100 µM.
The like results for `O=C1OCC2=C1C(c1ccc(Cl)c(Cl)c1)c1cc3c(cc1N2CCO)OCCO3` (centres undefined) were, in that order, 0.245 µM and over 50 µM.
For the compound `O=C(/C=C/c1cc2ccccc2[nH]c1=O)/C=C/c1cc2ccccc2[nH]c1=O`, the GI50 is 9.96 µM and the TGI is over 100 µM.
As to `Nc1nc(OCc2ccccc2)c2[nH]cnc2n1`, the GI50 was 25.5 µM and 21.7 µM; the TGI is 400 µM and 222 µM.
As to `CC(=O)OC12C=C(C)C(C(C)C1)C1C(=O)N(CCN3CCOCC3)C(=O)C12` (centres undefined), the GI50 is over 100 µM and the TGI is over 100 µM.
Compound `OCC12C3C4C5C3C1C5C42` (centres undefined) had a TGI of over 100 µM.
As for `CCCCCCCCCCCCCCCCCC[n+]1ccc2c(C)c3c(c(C)c2c1)c1cc(O)ccc1n3CC`, the GI50 was 3.34 µM and the TGI turned out to be 47.1 µM.
For `O=[N+]([O-])c1ccc(C=Cc2ccccc2)cc1.[C-]#[O+].[C-]#[O+].[C-]#[O+].[Cr]`, the GI50 is 43.4 µM and the TGI is over 100 µM.
Take `C/C(=C\c1ccc2ccccc2c1)[N+](=O)[O-]`: the GI50 is 1.56 µM and the TGI came to 3.59 µM.
In the case of `NC(CSC1c2ccccc2-c2ccccc21)C(=O)O` (centres undefined), the TGI is over 100 µM.
For `CCOC(=O)C1=C(C)N(c2ccc(Cl)cc2)[C@]2(C#N)C(O)=C(Cl)C(Cl)=C(O)[C@]12C#N`, the GI50 was 45.8 µM and the TGI was over 100 µM.

A further test relates to HCT-116 colon. As to the kind of experiment: growth of human tumour cells (NCI), 48 h.
For `COc1cc(N2C(=O)[C@H](O)C2c2ccc(SC)cc2)cc(OC)c1OC` (some centres undefined), the GI50 was under 0.01 µM and the TGI is over 100 µM.
The like results for `O=C1OCC2=C1C(c1ccc(Cl)c(Cl)c1)c1cc3c(cc1N2CCO)OCCO3` (centres undefined) were, in that order, 0.213 µM and 8.78 µM.
For `O=C1c2ccccc2-c2cc([N+](=O)[O-])c([N+](=O)[O-])cc21`, the TGI stood at 6.23 µM.
Take `O=C(/C=C/c1cc2ccccc2[nH]c1=O)/C=C/c1cc2ccccc2[nH]c1=O`: the GI50 was 1.28 µM and the TGI amounted to 2.09 µM.
For `Nc1nc(OCc2ccccc2)c2[nH]cnc2n1`, the GI50 is 34.7 µM and 34.5 µM; the TGI was 209 µM and 137 µM.
In the case of `CC(=O)OC12C=C(C)C(C(C)C1)C1C(=O)N(CCN3CCOCC3)C(=O)C12` (centres undefined), the GI50 was over 100 µM and the TGI was over 100 µM.
With `OCC12C3C4C5C3C1C5C42` (centres undefined), the TGI is over 100 µM.
On to `CCCCCCCCCCCCCCCCCC[n+]1ccc2c(C)c3c(c(C)c2c1)c1cc(O)ccc1n3CC`, for which the GI50 is 1.19 µM and the TGI came out at 12.7 µM.
As for `O=[N+]([O-])c1ccc(C=Cc2ccccc2)cc1.[C-]#[O+].[C-]#[O+].[C-]#[O+].[Cr]`, the GI50 was 14.8 µM and the TGI is over 100 µM.
As to `C/C(=C\c1ccc2ccccc2c1)[N+](=O)[O-]`, the GI50 was 2.19 µM and the TGI stood at 5.58 µM.
Regarding `NC(CSC1c2ccccc2-c2ccccc21)C(=O)O` (centres undefined), the TGI is over 100 µM.
Take `CCOC(=O)C1=C(C)N(c2ccc(Cl)cc2)[C@]2(C#N)C(O)=C(Cl)C(Cl)=C(O)[C@]12C#N`: the GI50 was 90 µM and the TGI is over 100 µM.

The next test deals with U251 CNS. As to the kind of experiment: growth of human tumour cells (NCI), 48 h.
For the compound `COc1cc(N2C(=O)[C@H](O)C2c2ccc(SC)cc2)cc(OC)c1OC` (some centres undefined), the GI50 is under 0.01 µM and the TGI was over 100 µM.
Taken in the same sequence, the figures for `O=C1OCC2=C1C(c1ccc(Cl)c(Cl)c1)c1cc3c(cc1N2CCO)OCCO3` (centres undefined) were 0.206 µM and 12.7 µM.
Compound `O=C1c2ccccc2-c2cc([N+](=O)[O-])c([N+](=O)[O-])cc21` gave a TGI of 2.93 µM.
Consider `O=C(/C=C/c1cc2ccccc2[nH]c1=O)/C=C/c1cc2ccccc2[nH]c1=O`, for which the GI50 is 4.53 µM and the TGI stood at 12.1 µM.
For `Nc1nc(OCc2ccccc2)c2[nH]cnc2n1`, the GI50 is 37.9 µM and 35.9 µM; the TGI is 400 µM and 204 µM.
On to `CC(=O)OC12C=C(C)C(C(C)C1)C1C(=O)N(CCN3CCOCC3)C(=O)C12` (centres undefined), for which the GI50 is over 100 µM and the TGI is over 100 µM.
Compound `OCC12C3C4C5C3C1C5C42` (centres undefined) had a TGI of over 100 µM.
Regarding `C1CCC([PH+](C2CCCCC2)C2CCCCC2[PH+](C2CCCCC2)C2CCCCC2)CC1.[Au].[CH-]1CCCCC1CC1CCCC[N-]1` (centres undefined), the GI50 was 0.199 µM and the TGI was found to be 1.59 µM.
For `O=[N+]([O-])c1ccc(C=Cc2ccccc2)cc1.[C-]#[O+].[C-]#[O+].[C-]#[O+].[Cr]`, the GI50 is 36.7 µM and the TGI is over 100 µM.
With `C/C(=C\c1ccc2ccccc2c1)[N+](=O)[O-]`, the GI50 was 1.77 µM and the TGI worked out at 3.6 µM.
In turn, `NC(CSC1c2ccccc2-c2ccccc21)C(=O)O` (centres undefined) had a TGI of over 100 µM.
As for `CCOC(=O)C1=C(C)N(c2ccc(Cl)cc2)[C@]2(C#N)C(O)=C(Cl)C(Cl)=C(O)[C@]12C#N`, the GI50 is over 100 µM and the TGI was over 100 µM.
